Reference: PubChem BioAssay (NCI)
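Five concentrations, 48 hours, 96-well plates. GI50: concentration for 50% inhibition of growth. At the TGI there is no net growth.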

Experiments:
Test in all cases: NCI-60 cell line screen, 48 h
[1] = test system: CAKI-1 renal
[2] = test system: SF-539 CNS
[3] = test system: SK-MEL-5 melanoma
[4] = test system: UO-31 renal
[5] = test system: COLO 205 colon
[6] = test system: LOX IMVI melanoma
[7] = test system: SNB-75 CNS
[8] = test system: MCF7 breast
[9] = test system: SK-MEL-2 melanoma
[10] = test system: 786-0 renal
[11] = test system: U251 CNS
[12] = test system: MDA-MB-435
[13] = test system: KM12 colon
[14] = test system: HCT-116 colon
[15] = test system: K-562 leukemia
[16] = test system: HOP-62 NSCLC
[17] = test system: CCRF-CEM leukemia
[18] = test system: SF-268 CNS
[19] = test system: HCC-2998 colon
[20] = test system: EKVX NSCLC
[21] = test system: SN12C renal
[22] = test system: RPMI-8226 leukemia
[23] = test system: MALME-3M melanoma
[24] = test system: HS 578T breast
[25] = test system: NCI-H23 lung
[26] = test system: NCI-H226 lung
[27] = test system: HCT-15 colon
[28] = test system: SF-295 CNS
[29] = test system: SW-620 colon
[30] = test system: M14 melanoma
[31] = test system: OVCAR-3 ovarian
[32] = test system: UACC-257 melanoma
[33] = test system: RXF 393 renal
[34] = test system: A549 NSCLC
[35] = test system: MOLT-4 leukemia
[36] = test system: TK-10 renal
[37] = test system: HOP-92 NSCLC
[38] = test system: SK-OV-3 ovarian
[39] = test system: SK-MEL-28 melanoma
[40] = test system: HL-60(TB) leukemia
[41] = test system: UACC-62 melanoma
[42] = test system: MDA-MB-468 breast
[43] = test system: HT29 colon
[44] = test system: OVCAR-8 ovarian
[45] = test system: A498 renal
[46] = test system: ACHN renal
[47] = test system: OVCAR-4 ovarian
[48] = test system: SNB-19 CNS
[49] = test system: OVCAR-5 ovarian
[50] = test system: MDA-MB-231 breast
[51] = test system: T-47D breast
[52] = test system: BT-549 breast
[53] = test system: IGROV1 ovarian
[54] = test system: PC-3 prostate
[55] = test system: DU-145 prostate
[56] = test system: SR leukemia
[57] = test system: NCI-H522 lung
[58] = test system: NCI-H460 lung

O=c1cc(-c2ccccc2)oc2cc(OCCCNCc3ccccc3)cc(O)c12
GI50 [1]: 2.41 µM | TGI [1]: 11 µM | GI50 [2]: 5.64 µM | TGI [2]: 18.7 µM | GI50 [3]: 5.04 µM | TGI [3]: 16.9 µM | GI50 [4]: 1.15 µM | TGI [4]: 8.66 µM | GI50 [5]: 1.98 µM | TGI [5]: 3.82 µM | GI50 [6]: 1.84 µM | TGI [6]: 3.92 µM | GI50 [7]: 2.4 µM | TGI [7]: 16.5 µM | GI50 [8]: 2.61 µM | TGI [8]: 10.3 µM | GI50 [9]: 6.43 µM | TGI [9]: 19.7 µM | GI50 [10]: 2.98 µM | TGI [10]: 15.5 µM | GI50 [11]: 3.69 µM | TGI [11]: 19.1 µM | GI50 [12]: 10.1 µM | TGI [12]: 21.7 µM | GI50 [13]: 3.77 µM | TGI [13]: 14.5 µM | GI50 [14]: 3.72 µM | TGI [14]: 27.7 µM | GI50 [15]: 3.16 µM | TGI [15]: > 100 µM | GI50 [16]: 11.5 µM | TGI [16]: 44.4 µM | GI50 [17]: 5.29 µM | TGI [17]: > 100 µM | GI50 [18]: 4.81 µM | TGI [18]: 30.3 µM | GI50 [19]: 1.91 µM | TGI [19]: 3.64 µM | GI50 [20]: 13.8 µM | TGI [20]: 36.4 µM | GI50 [21]: 4.19 µM | TGI [21]: 24.6 µM | GI50 [22]: 3.46 µM | TGI [22]: > 100 µM | GI50 [23]: 1.53 µM | TGI [23]: 3.2 µM | GI50 [24]: 4.08 µM | TGI [24]: 33.7 µM | GI50 [25]: 11.9 µM | TGI [25]: 26.3 µM | GI50 [26]: 11.1 µM | TGI [26]: 41.9 µM | GI50 [27]: 3.54 µM | TGI [27]: 13.1 µM | GI50 [28]: 4.72 µM | TGI [28]: 18 µM | GI50 [29]: 5.98 µM | TGI [29]: 21.1 µM | GI50 [30]: 2.64 µM | TGI [30]: 6.88 µM | GI50 [31]: 10 µM | TGI [31]: 23.7 µM | GI50 [32]: 2.13 µM | TGI [32]: 5.1 µM | GI50 [33]: 1.97 µM | TGI [33]: 8.11 µM | GI50 [34]: 4.33 µM | TGI [34]: 46.4 µM | GI50 [35]: 3.53 µM | TGI [35]: > 100 µM | GI50 [36]: 14.8 µM | TGI [36]: 28.8 µM | GI50 [37]: 1.56 µM | TGI [37]: 17.1 µM | GI50 [38]: 10.2 µM | TGI [38]: 22.6 µM | GI50 [39]: 2.31 µM | TGI [39]: 5.39 µM | GI50 [40]: 1.89 µM | TGI [40]: 5.03 µM | GI50 [41]: 1.77 µM | TGI [41]: 3.49 µM | GI50 [42]: 2.08 µM | TGI [42]: 5.21 µM | GI50 [43]: 3.15 µM | TGI [43]: 27.3 µM | GI50 [44]: 10.2 µM | TGI [44]: > 100 µM | GI50 [45]: 3.94 µM | TGI [45]: 16.9 µM | GI50 [46]: 3.42 µM | TGI [46]: 14.2 µM | GI50 [47]: 2.78 µM | TGI [47]: 8.84 µM | GI50 [48]: 10.4 µM | TGI [48]: 31.2 µM | GI50 [49]: 10 µM | TGI [49]: 22.9 µM | GI50 [50]: 2.89 µM | TGI [50]: 12.9 µM | GI50 [51]: 2.81 µM | TGI [51]: 8.68 µM | GI50 [52]: 8.5 µM | TGI [52]: 22.2 µM | GI50 [53]: 3.37 µM | TGI [53]: 15.7 µM | GI50 [54]: 5.05 µM | TGI [54]: 32.4 µM | GI50 [55]: 7.59 µM | TGI [55]: 20.4 µM | GI50 [56]: 2.91 µM | TGI [56]: > 100 µM | GI50 [57]: 6.21 µM | TGI [57]: 26.2 µM | GI50 [58]: 4.15 µM | TGI [58]: 20.8 µM
